In patent publication US20230312528A1, “2-OXO-IMIDAZOLIDINE-4-CARBOXAMIDES AS NAV1.8 INHIBITORS” (Merck Sharp & Dohme LLC, priority 2020, published 2023) one finds IC50 data, which are given here for 22 molecules.

SMILES strings stand for the structures.

human NaV1.8, sequence (Q9Y5Y9 whole entry): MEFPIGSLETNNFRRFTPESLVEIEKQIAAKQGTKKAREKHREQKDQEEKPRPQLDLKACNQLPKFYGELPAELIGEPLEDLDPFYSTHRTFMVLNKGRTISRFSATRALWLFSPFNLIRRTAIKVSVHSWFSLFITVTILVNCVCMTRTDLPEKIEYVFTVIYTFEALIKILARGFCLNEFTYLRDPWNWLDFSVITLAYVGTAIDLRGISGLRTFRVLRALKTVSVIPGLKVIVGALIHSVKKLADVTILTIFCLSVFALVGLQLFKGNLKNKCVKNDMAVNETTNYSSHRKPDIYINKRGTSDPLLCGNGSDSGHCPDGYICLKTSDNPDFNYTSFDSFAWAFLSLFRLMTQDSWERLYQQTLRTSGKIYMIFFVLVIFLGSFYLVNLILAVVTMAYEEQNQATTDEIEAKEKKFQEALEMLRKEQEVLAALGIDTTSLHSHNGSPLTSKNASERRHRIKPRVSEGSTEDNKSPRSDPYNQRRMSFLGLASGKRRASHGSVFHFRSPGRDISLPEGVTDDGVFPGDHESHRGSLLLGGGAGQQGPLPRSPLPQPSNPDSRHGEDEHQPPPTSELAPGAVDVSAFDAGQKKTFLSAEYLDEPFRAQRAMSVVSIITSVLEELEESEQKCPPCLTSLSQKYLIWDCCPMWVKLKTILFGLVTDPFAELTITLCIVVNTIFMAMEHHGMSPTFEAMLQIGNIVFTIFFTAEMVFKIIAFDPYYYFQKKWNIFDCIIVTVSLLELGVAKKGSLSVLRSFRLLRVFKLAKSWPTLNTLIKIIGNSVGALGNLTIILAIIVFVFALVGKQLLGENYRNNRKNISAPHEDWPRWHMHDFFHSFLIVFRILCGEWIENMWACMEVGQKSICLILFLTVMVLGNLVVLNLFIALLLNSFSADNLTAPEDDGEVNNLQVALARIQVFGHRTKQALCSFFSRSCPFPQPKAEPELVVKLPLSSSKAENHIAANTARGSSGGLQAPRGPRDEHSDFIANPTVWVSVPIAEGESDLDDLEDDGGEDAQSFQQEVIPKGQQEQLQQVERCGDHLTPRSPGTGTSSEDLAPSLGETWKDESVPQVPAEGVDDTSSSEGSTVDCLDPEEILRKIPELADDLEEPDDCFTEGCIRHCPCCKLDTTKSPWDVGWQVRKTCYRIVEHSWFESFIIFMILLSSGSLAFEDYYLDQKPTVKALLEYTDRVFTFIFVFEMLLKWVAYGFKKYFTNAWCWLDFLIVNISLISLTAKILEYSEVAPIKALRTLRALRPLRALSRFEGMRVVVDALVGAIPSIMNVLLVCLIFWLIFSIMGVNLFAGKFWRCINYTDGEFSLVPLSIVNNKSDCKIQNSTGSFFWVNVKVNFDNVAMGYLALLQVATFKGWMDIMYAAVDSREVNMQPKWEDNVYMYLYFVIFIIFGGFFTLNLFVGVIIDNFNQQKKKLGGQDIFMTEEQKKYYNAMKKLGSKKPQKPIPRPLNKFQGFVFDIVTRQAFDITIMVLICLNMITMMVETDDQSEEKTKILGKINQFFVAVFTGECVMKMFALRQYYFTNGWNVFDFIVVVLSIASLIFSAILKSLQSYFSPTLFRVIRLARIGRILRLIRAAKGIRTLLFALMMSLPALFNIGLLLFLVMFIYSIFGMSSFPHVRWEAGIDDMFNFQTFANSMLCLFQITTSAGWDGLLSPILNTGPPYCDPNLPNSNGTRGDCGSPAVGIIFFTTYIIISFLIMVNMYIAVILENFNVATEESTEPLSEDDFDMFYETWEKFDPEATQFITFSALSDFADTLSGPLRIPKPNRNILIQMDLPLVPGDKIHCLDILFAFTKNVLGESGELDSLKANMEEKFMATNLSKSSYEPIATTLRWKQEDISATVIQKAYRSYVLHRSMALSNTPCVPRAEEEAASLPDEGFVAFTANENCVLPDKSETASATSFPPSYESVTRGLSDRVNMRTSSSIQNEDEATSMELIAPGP

This experiment concerns the target human NaV1.8 (Homo sapiens (Human), UniProt Q9Y5Y9). Description: Nav1.8 Qube automated patch-clamp assay. The experiment is classed as cell-based. The settings on record: human NaV1.8 stably expressed in HEK 293 cells; automated 384-well patch-clamp; resting or inactivated state not specified. The protocol: Compounds were tested on human NaV1.8 and NaV1.5 channels stably expressed in human embryo kidney (HEK) 293 cells. Sodium current measurements on Qube® were conducted as follows: automated 384-well patch-clamp assays on the Qube® platform (Sophion Biosciences) were used to measure the inhibition of sodium flow through human NaV1.8 and NaV1.5 channels. Whole-cell voltage-clamp recordings were performed in QChips® (Sophion Biosciences) at room temperature. NaV1.8 current measurements on Qube® were obtained as follows: NaV1.8 currents were elicited with a 10 second 1 Hertz (Hz) pulse train from a holding potential of −90 millivolts (mV), delivered to the cells once per minute in the control condition (DMSO only) and after compound addition. The 1 hertz pulse train stimulation consisted of ten test pulses to 10 millivolt (mV) for 20 milliseconds (ms), each of which was followed by a 980 millisecond repolarization to −67 millivolts. At the end of the 10 second pulse train stimulation, a 5 second hyperpolarization step to −100 millivolt (mV) was used to recover NaV1.8 from fast inactivation. The peak currents elicited by the 1st and 10th test pulses were used to determine IC50 values for resting inhibition and inactivated state inhibition. NaV1.5 current measurements on Qube® were obtained as follows: NaV1.5 currents were elicited with a 20 second 3 Hertz pulse train in the control condition (DMSO only) and after compound addition. The pulse train consisted of sixty 20 millisecond test pulses to 0 millivolt from a holding potential of −80 millivolt (mV). The average peak currents elicited by the last 3 test pulses were used to determine IC50 values for NaV1.5 inhibition.
The following buffers were used for the Qube® recordings: External buffer for NaV1.8 Qube® recording: 150 NaCl, 2 CaCl2, 5 KCl, 1 Mg Cl2, 10 HEPES, 12 Dextrose; External buffer for Qube® NaV1.5 recording: 120 N-Methyl-D-Glucamine, 40 NaCl, 1 KCl, 2.7 CaCl2, 5 HEPES, 0.5 MgCl2; and Internal buffer for Qube® recording: 120 CsF, 30 CsCl, 10 EGTA, 5 HEPES, 5 NaF, 2 MgCl2.
For all Qube® experiments offline analysis was used to determine percent inhibition as a function of drug concentration. IC50 values were determined by fitting to the Hill equation.
With `O=C1NC[C@@H](C(=O)NC(c2ccc(Cl)cc2)c2cc(C(F)(F)F)c(F)cn2)N1` (single isomer, unassigned) [Example 59A, (S)-N-((R or S)-(4-chlorophenyl)(5-fluoro-4-(trifluoromethyl)pyridin-2-yl)methyl)-2-oxoimidazolidine-4-carboxamide], the IC50 stood at 44 nM.

`O=C1NC[C@@H](C(=O)NC(c2ccc(OC(F)(F)F)nc2)c2ccc(F)c(Cl)c2F)N1` (single isomer, unassigned) [Example 24A, (4S)-N-{(R or S)-(3-chloro-2,4-difluorophenyl)[6-(trifluoromethoxy)pyridin-3-yl]methyl}-2-oxoimidazolidine-4-carboxamide] yielded a concentration for half-maximal inhibition (IC50) of 3.1 nM. The same measure for `O=C1NC[C@@H](C(=O)NC(CC2CCCOC2)c2ccc(F)c(Cl)c2F)N1` (single isomer, unassigned) [Example 26A, (S)-N-((R or S)-1-(3-chloro-2,4-difluorophenyl)-2-((R or S)-tetrahydro-2H-pyran-3-yl)ethyl)-2-oxoimidazolidine-4-carboxamide]: 413 nM. In the case of `CC1(C)CC(C(NC(=O)[C@@H]2CNC(=O)N2)c2ccc(F)c(Cl)c2)C1C(F)(F)F` (stereo partly drawn) [Example 68, (4S)-N-((3-chloro-4-fluorophenyl)(3,3-dimethyl-2-(trifluoromethyl)cyclobutyl)methyl)-2-oxoimidazolidine-4-carboxamide] it was 604 nM; in that of `O=C1NC[C@@H](C(=O)NC(c2ccc(F)c(Cl)c2F)C2CCCCN2CC(F)(F)F)N1` (single isomer, unassigned) [Example 58D, (S)-N-((R or S)-(3-chloro-2,4-difluorophenyl) ((R or S)-1-(2,2,2-trifluoroethyl)piperidin-2-yl)methyl)-2-oxoimidazolidine-4-carboxamide], 787 nM; in that of `O=C1NC[C@@H](C(=O)NC(c2ccc(OC(F)(F)F)c(Cl)c2)c2ccc(OC(F)(F)F)cn2)N1` (single isomer, unassigned) [Example 39A, (S)—N—((R or S)-(3-chloro-4-(trifluoromethoxy)phenyl)(5-(trifluoromethoxy)pyridin-2-yl)methyl)-2-oxoimidazolidine-4-carboxamide], 1.3 nM. The same measure for `O=C1NC[C@@H](C(=O)NC(c2ccc(F)c(Cl)c2)c2cc3cc(Cl)ccc3o2)N1` (single isomer, unassigned) [Example 73A, (S)-N-((R or S)-(3-chloro-4-fluorophenyl)(5-chlorobenzofuran-2-yl)methyl)-2-oxoimidazolidine-4-carboxamide]: 0.2 nM; for `O=C1NC[C@@H](C(=O)NC(c2ccc(F)c(Cl)c2F)C2COC(C(F)(F)F)C2)N1` (single isomer, unassigned) [Example 79H, (S)-N-((R or S)-(3-chloro-2,4-difluoro-phenyl)((cis or trans)-5-(trifluoromethyl)tetrahydrofuran-3-yl)methyl)-2-oxoimidazolidine-4-carboxamide]: 3860 nM; for `O=C1NC[C@@H](C(=O)NC(c2ccc(F)c(Cl)c2)[C@H]2CC[C@H](C(F)(F)F)CC2)N1` (single isomer, unassigned) [Example 32A, (4S)—N—((R or S)-(3-chloro-4-fluorophenyl)(trans-4-(trifluoromethyl)cyclohexyl)methyl)-2-oxoimidazolidine-4-carboxamide]: 3.4 nM.

Turning to `N#Cc1ccc(C(NC(=O)[C@@H]2CNC(=O)N2)c2ccc(F)c(Cl)c2)cc1` (single isomer, unassigned) [Example 18B, (S)-N-((R or S)-(3-chloro-4-fluoro-phenyl)(4-cyano-phenyl)methyl)-2-oxoimidazolidine-4-carboxamide], the midpoint of inhibition, the IC50, lay at 17 nM. Compared with the last molecule, the IC50 is about 5-fold higher. For `O=C1NC[C@@H](C(=O)NC(c2cnc(OC(F)F)nc2)c2ccc(F)c(Cl)c2F)N1` (single isomer, unassigned) [Example 55A, (4S)—N—((R or S)-(3-chloro-2,4-difluorophenyl)(2-(difluoromethoxy)pyrimidin-5-yl)methyl)-2-oxoimidazolidine-4-carboxamide], the IC50 was 79 nM. This IC50 is about 4.6-fold higher than that of the molecule before. Consider `O=C1NC[C@@H](C(=O)NC(c2ccc(F)c(Cl)c2F)C2CCN(C3(C(F)(F)F)CC3)CC2)N1` (single isomer, unassigned) [Example 5B, (S)—N—((R or S)-(3-chloro-2,4-difluorophenyl)(1-(1-(trifluoromethyl)-cyclopropyl)piperidin-4-yl)methyl)-2-oxoimidazolidine-4-carboxamide], for which 74 nM corresponded to half-maximal inhibition (IC50). This IC50 and that of the molecule before are within 1.5-fold of each other.

The molecule `O=C1NC[C@@H](C(=O)NC(CC2CCCOC2)c2ccc(F)c(Cl)c2F)N1` (single isomer, unassigned) [Example 26C, (S)-N-((R or S)-1-(3-chloro-2,4-difluorophenyl)-2-((R or S)-tetrahydro-2H-pyran-3-yl)ethyl)-2-oxoimidazolidine-4-carboxamide] displayed a half-maximal inhibitory concentration (IC50) of 386 nM.

For `O=C1NC[C@@H](C(=O)NC(c2ccc(F)c(Cl)c2F)C2COC(C(F)(F)F)C2)N1` (single isomer, unassigned) [Example 79E, (S)-N-((R or S)-(3-chloro-2,4-difluoro-phenyl)((cis or trans)-5-(trifluoromethyl)tetrahydrofuran-3-yl)methyl)-2-oxoimidazolidine-4-carboxamide], the IC50 amounted to 49 nM.

Take `O=C1NC[C@@H](C(=O)NC(c2ccc(F)c(Cl)c2F)[C@H]2C[C@H](C(F)(F)F)C2)N1` (single isomer, unassigned) [Example 34B, (S)—N—((R or S)-(3-chloro-2,4-difluorophenyl)(trans-3-(trifluoromethyl)cyclobutyl)methyl)-2-oxoimidazolidine-4-carboxamide]: the IC50 worked out at 76 nM.

The molecule `O=C1NC[C@@H](C(=O)NC(CCc2ccc(Cl)cc2)c2ccc(F)c(Cl)c2F)N1` (single isomer, unassigned) [Example 52A, (4S)—N—((R or S)-1-(3-chloro-2,4-difluorophenyl)-3-(4-chlorophenyl)propyl)-2-oxoimidazolidine-4-carboxamide] showed an IC50 of 46 nM. In the case of `CN1CCC(C(NC(=O)[C@@H]2CNC(=O)N2)c2ccc(F)c(Cl)c2F)CC1C(F)(F)F` (single isomer, unassigned) [Example 78E, (S)-N-((R or S)-(3-chloro-2,4-difluoro-phenyl)((cis or trans)-1-methyl-2-(trifluoro-methyl)piperidin-4-yl)methyl)-2-oxoimidazolidine-4-carboxamide] it was 24 nM; in that of `O=C1NC[C@@H](C(=O)NC(CCc2ccc(Cl)cc2)c2ccc(F)c(Cl)c2F)N1` (single isomer, unassigned) [Example 52B, (4S)—N—((R or S)-1-(3-chloro-2,4-difluorophenyl)-3-(4-chlorophenyl)propyl)-2-oxoimidazolidine-4-carboxamide], 4.3 nM. `O=C1NC[C@@H](C(=O)NC(c2cnc(C(F)(F)F)c(Cl)c2)c2ccc(Cl)c(C(F)(F)F)n2)N1` (single isomer, unassigned) [Example 56B, (S)-N-((R or S)-(5-chloro-6-(trifluoromethyl)pyridin-2-yl)(5-chloro-6-(trifluoromethyl)pyridin-3-yl)methyl)-2-oxoimidazolidine-4-carboxamide]: half-maximal inhibition (IC50) required 4.5 nM. Take `O=C1NC[C@@H](C(=O)NC(c2ccc(Cl)cc2)c2cc(C(F)(F)F)c(F)cn2)N1` (single isomer, unassigned) [Example 59B, (S)-N-((R or S)-(4-chlorophenyl)(5-fluoro-4-(trifluoromethyl)pyridin-2-yl)methyl)-2-oxo-imidazolidine-4-carboxamide]: the IC50 came out at 62 nM. On to `O=C1NC[C@@H](C(=O)NC(c2ccc(OC(F)(F)F)c(Cl)c2)c2ccnc(C(F)(F)F)n2)N1` (single isomer, unassigned) [Example 49B, (S)-N-((R or S)-3-chloro-4-(trifluoro-methoxy)phenyl)(2-(trifluoromethyl)pyrimidin-4-yl)methyl)-2-oxoimidazolidine-4-carboxamide], for which the IC50 was 6.8 nM. For the molecule `O=C1NC[C@@H](C(=O)NC(c2ccc(F)c(Cl)c2F)[C@@H]2CC[C@@H](C(F)(F)F)CO2)N1` (single isomer, unassigned) [Example 8A, (S)—N—((R or S)-(3-chloro-2,4-difluorophenyl)((trans)-5-(trifluoromethyl)tetrahydro-2H-pyran-2-yl)methyl)-2-oxoimidazolidine-4-carboxamide], half-maximal inhibition (IC50) required 1140 nM. This IC50 lies about 170-fold higher than the previous one.
